These results are taken from patent US20050014810A1, “Use of substituted 2 phenylbenzimidazoles as medicaments” (Boehringer Ingelheim International GmbH, priority 2003, published 2005).

Counter-ions that a name gives are not always drawn.

On to `CC(=O)Nc1cccc(-c2ccc3c(c2)nc(-c2cccc(OCC(=O)O)c2)n3C[C@]2(C)CCC[C@]3(C)c4ccc(C(C)C)cc4CC[C@@H]23)c1`, for which the melting point is 175 °C (dec.).

As to `CC(C)c1ccc2c(c1)CC[C@H]1[C@](C)(Cn3c(-c4cccc(OCC(=O)O)c4)nc4cc(-c5cccc(NS(C)(=O)=O)c5)ccc43)CCC[C@]21C`, the melting point was 166 °C (dec.).

With `CC(C)c1ccc2c(c1)CC[C@H]1[C@](C)(Cn3c(-c4cccc(NC(=O)C(=O)O)c4)nc4cc(-c5ccccc5)ccc43)CCC[C@]21C`, the melting point turned out to be 235 °C.

For `CC(C)c1ccc2c(c1)CC[C@H]1[C@](C)(Cn3c(-c4ccc(CCC(=O)O)cc4)nc4cc(-c5ccccc5)ccc43)CCC[C@]21C`, the melting point was in the range of 298 to 300 °C.

`CC(C)c1ccc2c(c1)CC[C@H]1[C@](C)(Cn3c(-c4cccc(N5CCC(C(=O)O)CC5)c4)nc4cc(-c5ccccc5)ccc43)CCC[C@]21C` returned a melting point of 166 to 178 °C.

Turning to `CC(C)c1ccc2c(c1)CC[C@H]1[C@](C)(Cn3c(-c4cccc(OCCCC(=O)O)c4)nc4cc(-c5ccccc5)ccc43)CCC[C@]21C`, the melting point was 144 to 151 °C.

Turning to `CC(C)c1ccc2c(c1)CC[C@H]1[C@](C)(Cn3c(-c4cccc(NCC(=O)O)c4)nc4cc(-c5ccccc5)ccc43)CCC[C@]21C`, the melting point turned out to be 180 °C.

As for `CC(C)c1ccc2c(c1)CC[C@H]1[C@](C)(Cn3c(-c4cc(OCC(=O)O)ccc4N)nc4cc(-c5ccccc5)ccc43)CCC[C@]21C`, the melting point was > 295 °C (dec.).

The molecule `CC(=O)Nc1ccc(OCC(=O)O)cc1-c1nc2cc(-c3ccccc3)ccc2n1C[C@]1(C)CCC[C@]2(C)c3ccc(C(C)C)cc3CC[C@@H]12` had a melting point of 179 °C.

`CC(C)c1ccc2c(c1)CC[C@H]1[C@](C)(Cn3c(-c4cc(OCC(=O)O)ccc4NC(=O)C(F)(F)F)nc4cc(-c5ccccc5)ccc43)CCC[C@]21C` returned a melting point of 168 to 172 °C.

For the molecule `CC(C)c1ccc2c(c1)CC[C@H]1[C@](C)(Cn3c(-c4cccc(NC(=O)CC(=O)O)c4)nc4cc(-c5ccccc5)ccc43)CCC[C@]21C`, the melting point lay within 210 to 215 °C.

Molecule `CC(C)c1ccc2c(c1)CC[C@H]1[C@](C)(Cn3c(-c4cccc(NC(=O)Cc5nnn[nH]5)c4)nc4cc(-c5ccccc5)ccc43)CCC[C@]21C` came in with a melting point of 200 °C.

The molecule `COc1cc(OCCCC(=O)O)ccc1-c1nc2cc(/C=C/c3ccccc3)ccc2n1C[C@]1(C)CCC[C@]2(C)c3ccc(C(C)C)cc3CC[C@@H]12` displayed a melting point of 59 to 72 °C.

The molecule `CC(C)c1ccc2c(c1)CC[C@H]1[C@](C)(Cn3c(-c4cccc(OCC(=O)O)c4)nc4cc(-c5cccc([NH+]([O-])O)c5)ccc43)CCC[C@]21C` (stereo partly shown) showed a melting point of 258 to 262 °C.

`COc1cc(OCCCC(=O)O)ccc1-c1nc2cc(-c3cccc(C#N)c3)ccc2n1C[C@]1(C)CCC[C@]2(C)c3ccc(C(C)C)cc3CC[C@@H]12` gave a melting point of 185 °C.

Take `CC(C)c1ccc2c(c1)CC[C@H]1[C@](C)(Cn3c(-c4cccc(OCC(=O)O)c4)nc4cc(-c5cccc(O)c5)ccc43)CCC[C@]21C`: the melting point was 238 to 242 °C.

Turning to `CC(C)c1ccc2c(c1)CC[C@H]1[C@](C)(Cn3c(-c4cccc(OCC(=O)O)c4)nc4cc(-c5ccccc5N)ccc43)CCC[C@]21C`, the melting point is 186 to 190 °C.

As for `CC(C)c1ccc2c(c1)CC[C@H]1[C@](C)(Cn3c(-c4cccc(OCC(=O)O)c4)nc4cc(-c5cccc(CN6CCOCC6)c5)ccc43)CCC[C@]21C` (as salt: trifluoroacetate), the melting point is 133 °C (dec.).

In turn, `CC(C)c1ccc2c(c1)CC[C@H]1[C@](C)(Cn3c(-c4cccc(OCC(=O)O)c4)nc4cc(-c5cccc(CN(C)C)c5)ccc43)CCC[C@]21C` (as salt: trifluoroacetate) gave a melting point of 127 °C.
